Source: article PMC11213902, “Enhancing hepatoprotective action: oxyberberine amorphous solid dispersion system targeting TLR4” (Scientific Reports, 2024)

What was measured:
[1] = test system: ALI challenged by LPS/D-GalN; set-up: method as in PMID 35691465; conditions: previous research ref 8; cited from earlier work
[2] = In vivo oral bioavailability study; set-up: species or system SD rats; conditions: male, rat plasma OBB, 100 mg/kg, n = 6, mean ± SD
Experimental: Male SD rats weighing 220 ± 15 g were obtained from the Guangdong Medical Laboratory Animal Center (GDMLAC, Guangzhou, China). After fasting overnight, six rats were taken in each group, based on respective treatment at a dose of 100 mg/kg each: OBB-HPMCAS and OBB-SUS (OBB suspension). After isoflurane anesthesia, blood samples were collected from the posterior orbital venous plexus at 5, 10, 20, 30, 60, 90, 120, 180, 240, 360, 480, 720, and 1440 min, respectively. After centrifugation (12,000 rpm, 5 min), plasma was collected and stored at − 80 °C for further analysis. For deproteinization of plasma, ethyl acetate (200 μL) was added to the mixture and vortexed for 3 min. After centrifugation for […], the supernatant was collected and vacuum dried at 40 °C, − 0.8 Mpa. The residue was redissolved with 100 μL methanol/water (50:50, v/v). After centrifugation (12,000 rpm, 10 min), the supernatant was analyzed by LC–MS/MS system. Pharmacokinetic parameters were calculated based on the plasma pharmacokinetics of OBB. The peak concentration (Cmax), time of the peak concentration (Tmax), half-life (T1/2), and area under the profile from time 0 to 24 h (AUC0-24), were calculated using a DAS software (Version 2.0; Drug And Statistics, Shanghai, China, RRID: SCR_022672).

[3] = test system: hepatic inflammatory mediators and oxidative stress in ALI mice; assay: LPS/D-GalN-induced ALI, liver biochemical assessment (oxidative and inflammatory stress); type: in vivo, C57BL/6 mice
Experimental: (§1) All mice were randomly divided into six groups (n = 8): normal control group (NC); LPS/D-GalN group; OBB-ASDs25 group (25 mg/kg OBB-HPMCAS); OBB-ASDs50 group (50 mg/kg OBB-HPMCAS); OBB-SUS group (50 mg/kg OBB suspension); Silymarin group (100 mg/kg Silymarin). The drug dosage design for the ALI trial was primarily based on our previous research findings[25] and preclinical experiments. Except for NC and LPS/D-GalN groups, all other groups of mice were respectively pretreated by gavage with the corresponding dose of OBB-ASDs, OBB-SUS, and Silymarin once daily for 7 consecutive days. Mice in NC and LPS/D-GalN group were given the same volume of saline by intragastric administration. At 2 h postdose, all mice (except the NC group) were exposed to 30 μg/kg LPS and 600 mg/kg D-GalN. Mice in NC group were received the same volume of PBS intraperitoneally. After challenging for 6 h, blood samples were collected from the eyeball vein under 2% sodium pentobarbital anesthesia. Subsequently, the liver was immediately dissected, weighed, washed with saline, and stored at − 80 °C until further analyzed.
Fresh liver tissues were homogenized in Tris–HCl buffer (pH 7.4) and centrifuged at 4500 rpm for 15 min (4 °C). Subsequently, the supernatants were collected and assayed for MDA, SOD, GSH, MCP-1, TNF-α, IL-1β, and IL-6 using its specific commercially available assay kit following the manufacturer’s instructions.

[4] = In vitro dissolution study (paddle method); type: physicochemical; conditions: 0.3% SDS medium, 37 °C
Experimental: The dissolution Apparatus II (stirring paddle method) was utilized for the in vitro dissolution studies at a rotation speed of 100 ± 1 rpm in 250 mL 0.3% (w/v) sodium dodecyl sulfate (SDS) aqueous solution medium with a ZRS-8G dissolution tester (Tianjin Haiyida Technology Co., Ltd, Tianjin, China). All experiments were performed at 37 ± 0.5 °C. The OBB-ASDs samples were weighed to be equivalent to 2 mg of OBB. At predetermined time points (0, 5, 10, 20, 30, 60, and 90 min), 0.5 mL of sample solution was taken out and replaced with the same volume of fresh SDS solution (37 ± 0.5 °C). After being filtered through a 0.22 μm syringe filter, the filtered samples were collected and analyzed by HPLC.

[5] = test system: non-alcoholic fatty liver disease (NAFLD); set-up: method as in PMID 33831691; conditions: cited from earlier work
[6] = test system: LPS/D-GalN-induced acute liver injury (ALI) mice; assay: LPS/D-GalN-induced ALI, liver pathological changes (H&E); type: in vivo, C57BL/6 mice; conditions: gavage once daily 7 days; OBB-ASDs 25 and 50 mg/kg, OBB-SUS 50 mg/kg, Silymarin 100 mg/kg
Experimental: as §1
Liver tissue pathology was evaluated by regular hematoxylin–eosin (H&E) staining. […] According to the scoring system, liver injury was evaluated by pathologists blinded to the experimental protocol. Scores were determined as Dkhil et al. previously described (Table 3)[26].

[7] = Preliminary experiment: absorption and oral bioavailability; type: in vivo; conditions: pure OBB
[8] = test system: LPS/D-GalN-induced acute liver injury (ALI) mice; assay: LPS/D-GalN-induced ALI, liver function analysis (serum ALT, AST); type: in vivo, C57BL/6 mice; conditions: gavage once daily 7 days; OBB-ASDs 25 and 50 mg/kg, OBB-SUS 50 mg/kg, Silymarin 100 mg/kg; P < 0.05
Experimental: as §1
After centrifugated at 3000 g for 10 min, serum was acquired and the activities of ALT and AST were measured using commercial kits (Nanjing Jiancheng, China) following the manufacturer’s instructions.

[9] = test system: mRNA expression of TLR4, MyD88, IL-1β, and IL-6; assay: LPS/D-GalN-induced ALI, quantitative PCR of liver tissues; type: in vivo, C57BL/6 mice; conditions: P < 0.01
Experimental: as §1, with “-” for “−”, “analyzed. […] Quantitative PCR was performed on an Applied Biosystems 7500 Real-Time system (ABI 7500, RRID: SCR_018051). Primer sequences against mouse cDNAs used in qPCR were listed as follows: TLR4, [NT] (reverse); MyD88, […] (reverse); IL-6, [NT] (reverse); IL-1β, [NT] (reverse); and GAPDH, […] (reverse).” for “analyzed.”

[10] = set-up: method as in PMID 30599908; conditions: cited from earlier work
kidneys = assay: Chronic nephrotoxicity assessment (kidney HE staining); type: in vivo, C57BL/6 mice; conditions: mice, oral, 50 mg/kg, continuous administration for 4, 8, and 16 weeks
Experimental: Male C57BL/6 mice were orally administered OBB and OBB-HPMCAS at a dose of 50 mg/kg for 16 weeks. Kidney tissues were collected at 4, 8, and 16 weeks for HE staining to observe the long-term effects of OBB administration on the kidneys.

[11] = compared with the LPS/D-GalN group
[12] = pretreatment 7 days, OBB-ASDs 25 and 50 mg/kg, OBB-SUS 50 mg/kg, Silymarin 100 mg/kg, vs LPS/D-GalN group
[13] = higher in LPS/D-GalN challenged mice
[14] = qRT-PCR, elevation after LPS/D-GalN exposure

Structure (SMILES): COc1ccc2cc3n(c(=O)c2c1OC)CCc1cc2c(cc1-3)OCO2 [OBB, 8-Oxyberberine]
- effect on ALI challenged by LPS/D-GalN [1]: effectively attenuated
- Cmax [2]: 169 ± 18.6 ng/mL
- Tmax [2]: 4.67 ± 0.52 h
- half-life [2]: 2.99 ± 0.42 h
- AUC(0-t) ([2]; read-out: AUC0-24): 1260 ± 130 ng·h/mL
- hepatic CAT content [3, 11]: increasing
- hepatic GSH content [3, 11]: increasing
- hepatic MDA level [3, 11]: dramatically suppressed
- hepatic SOD content [3, 11]: increasing
- IL-1β level in liver [3, 12]: largely decreased
- IL-6 level in liver [3, 12]: largely decreased
- MCP-1 level in liver [3, 12]: largely decreased
- TNF-α level in liver [3, 12]: largely decreased
- release / dissolution rate, pure OBB compared with formulations [4]: significantly slower
- effect on non-alcoholic fatty liver disease (NAFLD) [5]: pronounced therapeutic effect
- liver tissue injury (H&E staining) vs model group [6]: conspicuously mitigated
- absorption and oral bioavailability [7]: poor
- serum ALT level vs LPS/D-GalN group [8]: extremely reduced
- serum AST level vs LPS/D-GalN group [8]: extremely reduced
- MyD88 mRNA expression (real-time PCR) [9, 13]: restored
- TLR4 mRNA expression (real-time PCR) [9, 13]: restored
- IL-1β mRNA expression level in liver [9, 14]: markedly restore
- IL-6 mRNA expression level in liver [9, 14]: markedly restore
- solubility in water [10]: poorly soluble in water
- kidney damage (HE staining) (kidneys): no significant kidney damage
